Test results published in patent publication US20120184006A1, “Reductase Enzymes” (UTAH STATE UNIVERSITY, priority 2011, published 2012).

B1: fatty acyl-CoA reductase (FACoAR) from M. aquaeolei VT8 (Marinobacter nauticus VT8) (protein)
chain: MNYFLTGGTGFIGRFLVEKLLARGGTVYVLVREQSQDKLERLRERWGADDKQVKAVIGDLTSKNLGIDAKTLKSLKGNIDHVFHLAAVYDMGADEEAQAATNIEGTRAAVQAAEAMGAKHFHHVSSIAAAGLFKGIFREDMFEEAEKLDHPYLRTKHESEKVVREECKVPFRIYRPGMVIGHSETGEMDKVDGPYYFFKMIQKIRHALPQWVPTIGIEGGRLNIVPVDFVVDALDHIAHLEGEDGNCFHLVDSDPYKVGEILNIFCEAGHAPRMGMRIDSRMFGFIPPFIRQSIKNLPPVKRITGALLDDMGIPPSVMSFINYPTRFDTRELERVLKGTDIEVPRLPSYAPVIWDYWERNLDPDLFKDRTLKGTVEGKVCVVTGATSGIGLATAEKLAEAGAILVIGARTKETLDEVAASLEAKGGNVHAYQCDFSDMDDCDRFVKTVLDNHGHVDVLVNNAGRSIRRSLALSFDRFHDFERTMQLNYFGSVRLIMGFAPAMLERRRGHVVNISSIGVLTNAPRFSAYVSSKSALDAFSRCAAAEWSDRNVTFTTINMPLVKTPMIAPTKIYDSVPTLTPDEAAQMVADAIVYRPKRIATRLGVFAQVLHALAPKMGEIIMNTGYRMFPDSPAAAGSKSGEKPKVSTEQVAFAAIMRGIYW

Columns and labels:
[1] = biological target: T1, fatty acyl-CoA reductase (FACoAR) from M. aquaeolei VT8 (Marinobacter nauticus (Marinobacter aquaeolei), UniProt A1U3L3); assay: Continuous spectrophotometric NADPH assay (decrease of NADPH at 340 nm); assay type: biochemical; conditions: for Rate of Reaction (nmol NADP^+ min^−1 mg proten^−1): 60 μm of the respective aldehyde as substrate; for % Specific Activity of Decanal: percent of the specific activity of decanal, 60 μm aldehyde
T1 sequence (A1U3L3 1-661): B1 chain
Experimental: (§1) All assays were conducted in a total volume of 1 mL. A buffer containing 50 mM NaCl, 20 mM Tris-HCl pH 7.0, and 0.5 mg/mL BSA was prepared along with a 1 mM stock of aldehyde dissolved in dimethyl sulfoxide (DMSO) or a 0.1 mM stock of the acyl-CoA, and […] NADPH. All components including protein were degassed in sealed vials and placed under an argon atmosphere. NADPH was degassed as the solid prior to the addition of degassed buffer. Each assay was conducted by adding 75 μL of the NADPH stock, 58 μg protein for acyl-CoA assays or 15 μg protein for aldehyde assays, varying concentrations of aldehyde or acyl-CoA and buffer to bring the final volume to 1 mL. Each sample was continuously monitored for the decrease of NADPH at 340 nm on a Varian 50 Bio UV-visible spectrophotometer (Walnut Creek, Calif.). Initial rates were calculated in Excel using the linear initial rates of reaction obtained from the spectrophotometric assays by obtaining the slope from the best. In line and calculating nmol of NADPH oxidized per second. (Microsoft, Redmond, Wash.). These initial rates were used to calculate Km and Vmax values using the Igor Pro software package (Wavemetrics, Lake Oswego, Oreg.) fitting the initial rates to the Hill equation (31). NADPH specific activity assays were conducted identically as described above using a fixed 60 μM concentration of the various aldehyde substrates or 6 μM of the various acyl-CoA substrates.

[2] = biological target: T1, fatty acyl-CoA reductase (FACoAR) from M. aquaeolei VT8; assay: Continuous spectrophotometric DTNB assay (release of free CoA); assay type: biochemical; conditions: for Rate of Reaction (nmol NTB^2− min^−1 mg protein^−1): 6 μM of the respective CoA as substrate; for % Specific Activity of Palmitoyl-CoA: percent of the specific activity of palmitoyl-CoA, 6 μM substrate
Experimental: Buffers and solutions were prepared as described above for NADPH assays. Each assay was conducted by adding 75 μL of the 2 mg/mL NADPH stock solution in buffer, 58 μg of protein, and 10 μL of a 10 mg/mL solution of DTNB in DMSO, varying concentrations of acyl-CoA and buffer to bring the volume to 1 mL. Reduction of acyl-CoA substrate was monitored by following the increase of the 2-nitro-5-thiobenzoate (NTB^2−) dianion concentration at 412 nm. […] These initial rates were used to calculate the apparent K, and Vmax values using the Igor Pro (Wavemetrics, Lake Oswego, Oreg.) software package fitting the initial rates to the Hill equation (Equation 1) where v is the initial velocity, Vmax is the maximum calculated velocity, [S]^n is the concentration of substrate and n is the Hill coefficient, K0.5^n is the approximation of Km or the approximate substrate concentration at which half of Vmax is obtained at a specific value of the Hill coefficient n. In the case of enzyme inhibition, a modified version of the Hill equation allowing for cooperative inhibition (Equation 2) where all of the coefficients are defined as for the Hill equation and the additional [i]^n is the concentration of inhibitor and n is the Hill coefficient. The Ki^n is the approximate concentration of inhibitor it takes to double the K0.5 at a specific value of the Hill coefficient n.

[3] = system: FALDR (fatty aldehyde reductase) from M. aquaeolei VT8; conditions: previously tested enzyme, aldehyde substrate; cited from earlier work
M. aquaeolei VT8 FACoAR = assay: Addition of detergents and reducing agents to the FACoAR kinetic assay; assay type: biochemical, Marinobacter aquaeolei VT8; conditions: varying concentrations (isopropanol 5%)
Excerpt: As part of our characterization, we attempted to alleviate the sigmoidal response of activity to substrate concentration by the addition of reducing agents and detergents. In the case of another type of acyl-CoA reductase, HMG-CoA reductase, the addition of reducing agents and/or detergents could limit, but not eliminate the sigmoidal kinetics related to cooperative binding. […] This seems to indicate the potential of some inter- or intra-protein interaction that is necessary for the activity to occur. To further investigate this possibility, the protein was analyzed by size exclusion chromatography to determine the native weight of the protein.

[4] = substrate: CCCC/C=C\CCCCCCCCCC=O; assay: Continuous spectrophotometric NADPH assay (decrease of NADPH at 340 nm); assay type: biochemical, Marinobacter aquaeolei VT8; conditions: pH 7.0
Experimental: as §1

[5] = substrate: CCCCCCCCCCCCCCCC(=O)SCCNC(=O)CCNC(=O)[C@H](O)C(C)(C)COP(=O)(O)OP(=O)(O)OC[C@H]1O[C@@H](n2cnc3c(N)ncnc32)[C@H](O)[C@@H]1OP(=O)(O)O; assay: as above; assay type: biochemical, Marinobacter aquaeolei VT8; conditions: other: FIG. 5, NADPH assay, acyl-CoA substrate; pH 7.0
Experimental: as §1

[6] = substrate: CCCCCCCCCCCCCCCC(=O)SCCNC(=O)CCNC(=O)[C@H](O)C(C)(C)COP(=O)(O)OP(=O)(O)OC[C@H]1O[C@@H](n2cnc3c(N)ncnc32)[C@H](O)[C@@H]1OP(=O)(O)O; assay: Continuous spectrophotometric DTNB assay (release of free CoA); assay type: biochemical, Marinobacter aquaeolei VT8
[7] = running text b50, fatty aldehyde reduction
[8] = other: FIG. 6, NADPH assay, aldehyde substrate

Row | Molecule | Rate of Reaction (nmol NADP^+ min^−1 mg proten^−1) [1] | % Specific Activity of Decanal [1] | Rate of Reaction (nmol NTB^2− min^−1 mg protein^−1) [2] | % Specific Activity of Palmitoyl-CoA [2] | other results
1 | O=Cc1ccc2ccccc2c1 [2-Naphthaldehyde] | 5280 ± 10 nmol NADP^+ min^−1 mg proten^−1 | 3% | – | – | –
2 | CC=O [Acetaldehyde] | 54 ± 6.0 nmol NADP^+ min^−1 mg proten^−1 | <1% | – | – | –
3 | CCCCC/C=C\C/C=C\C/C=C\C/C=C\CCCC(=O)SCCNC(=O)CCNC(=O)[C@H](O)C(C)(C)COP(=O)(O)OP(=O)(O)OC[C@H]1O[C@@H](n2cnc3c(N)ncnc32)[C@H](O)[C@@H]1OP(=O)(O)O [Arachidonoyl-CoA] | – | – | 50.7 ± 3.66 nmol NTB^2− min^−1 mg protein^−1 | 93% | –
4 | CCCC/C=C\CCCCCCCCCC=O [Cis-11-hexadecenal] | 9910 ± 600 nmol NADP^+ min^−1 mg proten^−1 | 63% | – | – | n (Hill coefficient) ([1]; FIG. 6, NADPH assay, aldehyde substrate): 2±0.8; Km ([1]; fatty aldehyde reduction, read-out: Km (Hill equation)): 25 µM; Vmax [1, 7]: ~10 µmol/min/mg; cooperativity n [1, 7]: ~2; Km [3]: 177 µM; Vmax [3]: approximately 60 nmols min^−1 mg^−1
5 | CCCCCCCCCC=O [Decanal] | 15800 ± 860 nmol NADP^+ min^−1 mg proten^−1 | 100% | – | – | –
6 | CCCCCCCCCCCC=O [Dodecanal] | 11700 ± 250 nmol NADP^+ min^−1 mg proten^−1 | 74% | – | – | –
7 | CCCCCC=O [Hexanal] | 1540 ± 30.0 nmol NADP^+ min^−1 mg proten^−1 | 10% | – | – | –
8 | CCCCCCCCCCCC(=O)SCCNC(=O)CCNC(=O)[C@H](O)C(C)(C)COP(=O)(O)OP(=O)(O)OC[C@H]1O[C@@H](n2cnc3c(N)ncnc32)[C@H](O)[C@@H]1OP(=O)(O)O [Lauroyl-CoA] | – | – | 44.0 ± 6.3 nmol NTB^2− min^−1 mg protein^−1 | 80% | –
9 | CCCCCCCCCCCCCC(=O)SCCNC(=O)CCNC(=O)[C@H](O)C(C)(C)COP(=O)(O)OP(=O)(O)OC[C@H]1O[C@@H](n2cnc3c(N)ncnc32)[C@H](O)[C@@H]1OP(=O)(O)O [Myristoyl-CoA] | – | – | 34.1 ± 2.1 nmol NTB^2− min^−1 mg protein^−1 | 58% | –
10 | CCCCCCCC=O [Octanal] | 5200 ± 1500 nmol NADP^+ min^−1 mg proten^−1 | 33% | – | – | –
11 | CCCCCCCC(=O)SCCNC(=O)CCNC(=O)[C@H](O)C(C)(C)COP(=O)(O)OP(=O)(O)OC[C@H]1O[C@@H](n2cnc3c(N)ncnc32)[C@H](O)[C@@H]1OP(=O)(O)O [Octanoyl-CoA] | – | – | 18.8 ± 0.83 nmol NTB^2− min^−1 mg protein^−1 | 34% | –
12 | CCCCCCCC/C=C\CCCCCCCC(=O)SCCNC(=O)CCNC(=O)[C@H](O)C(C)(C)COP(=O)(O)OP(=O)(O)OC[C@H]1O[C@@H](n2cnc3c(N)ncnc32)[C@H](O)[C@@H]1OP(=O)(O)O [Oleyl-CoA] | – | – | 41.5 ± 3.1 nmol NTB^2− min^−1 mg protein^−1 | 76% | –
13 | CCC=O [Propanal] | 43 ± 6.0 nmol NADP^+ min^−1 mg proten^−1 | <1% | – | – | –
14 | CCCCCCCCCCCCCCCCCC(=O)SCCNC(=O)CCNC(=O)[C@H](O)C(C)(C)COP(=O)(O)OP(=O)(O)OC[C@H]1O[C@@H](n2cnc3c(N)ncnc32)[C@H](O)[C@@H]1OP(=O)(O)O [Stearoyl-CoA] | – | – | 37.6 ± 3.5 nmol NTB^2− min^−1 mg protein^−1 | 69% | –
15 | CC(C)O [isopropanol] | – | – | – | – | effect on FACoAR activity (M. aquaeolei VT8 FACoAR): inhibited activity
16 | OCCS [β-mercaptoethanol] | – | – | – | – | effect on FACoAR activity (M. aquaeolei VT8 FACoAR): inhibited activity
17 | Triton X-100 | – | – | – | – | effect on FACoAR activity (M. aquaeolei VT8 FACoAR): inhibited activity
18 | B1 | – | – | – | – | K0.5 ([4]; fatty aldehyde reduction): 25 µM; Km [4, 8]: 48 ± 7 µM; Vmax [4, 8]: 7.7±0.6 μmol min^−1 mg of protein^−1; Km [5]: 4.0 ± 0.2 µM; K0.5 ([6]; acyl-CoA reduction, data of both DTNB and NADPH assays): 4 µM; Km ([6]; other: FIG. 5, DTNB assay, Hill fit, substrate): 4 ± 0.3 µM
